Laboratory results: patent US20110172236A1, “SUBSTITUTED ARYL SULFONE DERIVATIVES AS CALCIUM CHANNEL BLOCKERS” (priority 2008, published 2011)
pIC50: −log10 of the molar value.

Molecular target: T1, Human Cav2.2 channels (Homo sapiens, UniProt Q00975)
T1 construct: expressed in transfected cells
Test: Fluorescent assay for Cav2.2 channels using potassium depolarization (Assay Example 1)
Format: cell-based
Settings: pre-incubation potassium concentration not stated
Source text: Assay Example 1: Fluorescent Assay for Cav2.2 Channels Using Potassium Depolarization to Initiate Channel Opening.
Human Cav2.2 channels were stably expressed in KEK293 cells along with alpha2-delta and beta subunits of voltage-gated calcium channels. An inwardly rectifying potassium channel (Kir2.3) was also expressed in these cells to allow more precise control of the cell membrane potential by extracellular potassium concentration. At low bath potassium concentration, the membrane potential is relatively negative, and is depolarized as the bath potassium concentration is raised. In this way, the bath potassium concentration can be used to regulate the voltage-dependent conformations of the channels. Compounds are incubated with cells in the presence of low (4 mM) potassium or elevated (12, 25 or 30 mM) potassium to determine the affinity for compound block of resting (closed) channels at 4 mM potassium or affinity for block of open and inactivated channels at 12, 25 or 30 mM potassium. After the incubation period, Cav2.2 channel opening is triggered by addition of higher concentration of potassium (70 mM final concentration) to further depolarize the cell. The degree of state-dependent block can be estimated from the inhibitory potency of compounds after incubation in different potassium concentrations.
Calcium influx through Cav2.2 channels is determined using a calcium-sensitive fluorescent dye in combination with a fluorescent plate reader. Fluorescent changes were measured with either a VIPR (Aurora Instruments) or FLIPR (Molecular Devices) plate reader.
• 1. Seed cells in Poly-D-Lysine Coated 96- or 384-well plate and keep in a 37° C.-10% CO2 incubator overnight • 2. Remove media^1, wash cells with 0.2 ml (96-well plate) or 0.05 ml (384-well plate) Dulbecco's Phosphate Buffered Saline (D-PBS) with calcium & magnesium (Invitrogen; 14040) • 3. Add 0.1 ml (96-well plate) or 0.05 ml (384-well plate) of 4 μM fluo-4 (Molecular Probes; F-14202) and 0.02% Pluronic acid (Molecular Probes; P-3000) prepared in D-PBS with calcium & magnesium (Invitrogen; 14040) supplemented with 10 mM Glucose & 10 mM Hepes/NaOH; pH 7.4 • 4. Incubate in the dark at 25° C. for 60-70 min • 5. Remove dye^2, wash cells with 0.1 ml (96-well plate) or 0.06 ml (384-well plate) of 4, 12, 25, or 30 mM Potassium Pre-polarization Buffer. (PPB) • 6. Add 0.1 ml (96-well plate) or 0.03 ml (384-well plate) of 4, 12, 25, 30 mM PPB. with or without test compound • 7. Incubate in the dark at 25° C. for 30 min • 8. Read cell plate on VIPR instrument, Excitation=480 nm, Emission 535 nm • 9. With VIPR continuously reading, add 0.1 ml (96-well plate) or 0.03 ml (384-well plate) of Depolarization Buffer, which is 2× the final assay concentration, to the cell plate.

T1 sequence (Q00975 whole entry): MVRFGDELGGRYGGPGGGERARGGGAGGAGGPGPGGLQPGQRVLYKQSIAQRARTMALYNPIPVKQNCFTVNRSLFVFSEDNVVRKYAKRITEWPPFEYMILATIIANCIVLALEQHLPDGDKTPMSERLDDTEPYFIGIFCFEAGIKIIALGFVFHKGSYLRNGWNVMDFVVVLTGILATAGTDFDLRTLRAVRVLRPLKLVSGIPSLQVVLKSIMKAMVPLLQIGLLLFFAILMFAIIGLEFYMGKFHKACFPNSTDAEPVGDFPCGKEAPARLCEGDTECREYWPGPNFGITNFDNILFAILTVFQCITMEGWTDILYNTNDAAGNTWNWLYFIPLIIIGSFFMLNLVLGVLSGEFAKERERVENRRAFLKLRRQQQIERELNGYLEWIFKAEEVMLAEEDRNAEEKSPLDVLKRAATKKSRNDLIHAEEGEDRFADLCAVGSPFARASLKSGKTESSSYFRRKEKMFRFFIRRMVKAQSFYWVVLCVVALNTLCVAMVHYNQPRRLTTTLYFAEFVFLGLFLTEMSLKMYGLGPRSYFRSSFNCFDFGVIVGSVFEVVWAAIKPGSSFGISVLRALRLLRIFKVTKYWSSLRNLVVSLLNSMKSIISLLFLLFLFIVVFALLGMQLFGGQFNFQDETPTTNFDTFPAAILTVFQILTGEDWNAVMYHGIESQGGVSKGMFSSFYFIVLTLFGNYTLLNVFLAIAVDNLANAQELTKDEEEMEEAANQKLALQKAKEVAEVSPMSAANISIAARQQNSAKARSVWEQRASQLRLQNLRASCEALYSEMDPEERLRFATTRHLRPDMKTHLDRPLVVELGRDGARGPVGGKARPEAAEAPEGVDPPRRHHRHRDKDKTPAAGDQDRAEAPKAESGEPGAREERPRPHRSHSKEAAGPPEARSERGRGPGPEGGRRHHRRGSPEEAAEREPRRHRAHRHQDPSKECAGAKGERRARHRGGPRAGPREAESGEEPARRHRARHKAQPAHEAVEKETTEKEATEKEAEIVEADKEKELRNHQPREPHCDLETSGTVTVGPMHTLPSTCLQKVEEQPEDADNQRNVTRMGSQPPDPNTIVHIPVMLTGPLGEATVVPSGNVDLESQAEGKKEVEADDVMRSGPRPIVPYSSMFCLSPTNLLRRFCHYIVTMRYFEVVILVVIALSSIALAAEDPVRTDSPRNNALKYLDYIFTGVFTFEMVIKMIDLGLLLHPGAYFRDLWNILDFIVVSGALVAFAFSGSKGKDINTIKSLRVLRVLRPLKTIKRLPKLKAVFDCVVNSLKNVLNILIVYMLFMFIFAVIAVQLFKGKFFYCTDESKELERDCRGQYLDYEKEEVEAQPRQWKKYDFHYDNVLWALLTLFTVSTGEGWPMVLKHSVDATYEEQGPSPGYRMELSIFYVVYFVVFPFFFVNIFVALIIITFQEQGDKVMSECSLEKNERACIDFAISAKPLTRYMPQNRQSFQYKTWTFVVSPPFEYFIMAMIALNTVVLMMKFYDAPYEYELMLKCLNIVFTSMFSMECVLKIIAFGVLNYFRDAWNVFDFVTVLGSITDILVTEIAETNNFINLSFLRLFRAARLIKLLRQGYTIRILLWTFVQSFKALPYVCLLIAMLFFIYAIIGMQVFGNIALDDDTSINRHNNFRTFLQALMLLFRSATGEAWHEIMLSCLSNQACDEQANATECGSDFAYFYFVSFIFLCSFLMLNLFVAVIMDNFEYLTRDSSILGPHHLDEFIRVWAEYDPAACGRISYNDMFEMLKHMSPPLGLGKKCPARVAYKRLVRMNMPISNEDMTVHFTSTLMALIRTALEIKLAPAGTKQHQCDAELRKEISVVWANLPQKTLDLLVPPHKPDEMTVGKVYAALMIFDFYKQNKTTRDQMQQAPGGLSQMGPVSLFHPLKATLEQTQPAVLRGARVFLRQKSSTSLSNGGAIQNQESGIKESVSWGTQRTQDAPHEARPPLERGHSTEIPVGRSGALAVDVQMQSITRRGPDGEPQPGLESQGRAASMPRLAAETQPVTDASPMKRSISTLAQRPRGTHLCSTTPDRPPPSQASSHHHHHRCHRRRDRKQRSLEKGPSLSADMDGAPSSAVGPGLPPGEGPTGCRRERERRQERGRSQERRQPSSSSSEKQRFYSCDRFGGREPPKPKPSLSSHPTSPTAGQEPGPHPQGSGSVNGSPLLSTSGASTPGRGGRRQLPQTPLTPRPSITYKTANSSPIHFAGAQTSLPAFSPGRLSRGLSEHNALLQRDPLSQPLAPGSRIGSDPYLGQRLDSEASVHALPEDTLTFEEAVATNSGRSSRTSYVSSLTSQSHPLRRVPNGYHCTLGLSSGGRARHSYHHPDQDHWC

| SMILES | pIC50 |
| --- | --- |
| CC(C)([C@H]1CCN(c2ccc(C(F)(F)F)cn2)C(=O)C1)S(=O)(=O)c1cccc(C(F)(F)F)c1 | 6.19 |
| CC(C)(C1CCN(Cc2ccc(F)cc2)C(=O)C1)S(=O)(=O)c1cccc(C(F)(F)F)c1 (stereo not drawn) | 6.66 |
| CC(C)(C1CC(=O)N(c2ccc(C(F)(F)F)cc2)C1)S(=O)(=O)c1cccc(C(F)(F)F)c1 (stereo not drawn) | 6.10 |
| CC(C)(C1CCN(c2ccccc2)C(=O)C1)S(=O)(=O)c1cccc(C(F)(F)F)c1 (stereo not drawn) | 6.44 |
| CC(C)(C1CCC(=O)N(Cc2ccc(Cl)cc2)C1)S(=O)(=O)c1cccc(C(F)(F)F)c1 (stereo not drawn) | 6.05 |
| CC(C)([C@@H]1CCN(c2ccc(C(F)(F)F)cn2)C(=O)C1)S(=O)(=O)c1cccc(C(F)(F)F)c1 | 6.55 |
